Data from article PMC5867211 (Archives of toxicology, 2017).
“Also recorded” adds a separate entry of the source. Like-named read-outs stand apart in the source and are kept apart here.

How the values were obtained:
Hep3B cells [1] = assay: Metabolism-induced toxicity on DataChip/MetaChip; details: for Change of toxicity in All Mix vs. parent compound: All Mix vs. no enzyme, 3D Hep3B on chip; for CC50: Homo sapiens, Hep3B
[2] = tested on: Hep3B human hepatoma cell line; assay: 2D cell viability; format: cell-based; details: 72 h, read-out: IC50, 2D cultured Hep3B cells in 96-well plates
Hep3B cells [3] = tested on: Hep3B cells
humans = details: previously categorized; ref Xu et al. 2008; cited from earlier work
[4] = read-out: 1000* Human Cmax; 1000-fold in vivo human Cmax; cited from earlier work
in vitro = details: human

| SMILES | IC50 ([2]; Homo sapiens, Hep3B) | DILI category (humans) | Cmax [4] | other results |
| --- | --- | --- | --- | --- |
| CC(=O)Nc1ccc(O)cc1 [Acetaminophen] | 300 µM | P1 |  | Change of toxicity in All Mix vs. parent compound (Hep3B cells [1]): metabolism-induced toxicity; Change of toxicity in P450 Mix vs. parent compound (Hep3B cells [3]): metabolism-induced toxicity |
| CCc1oc2ccccc2c1C(=O)c1cc(Br)c(O)c(Br)c1 [Benzbromarone] | 58 ± 22 µM | P1 |  |  |
| COc1ccccc1Oc1c(NS(=O)(=O)c2ccc(C(C)(C)C)cc2)nc(-c2ncccn2)nc1OCCO [Bosentan] | 55 ± 20 µM | P1 |  |  |
| O=C1CC2(CCCC2)CC(=O)N1CCCCN1CCN(c2ncccn2)CC1 [Buspirone] | 170 ± 74 µM | N1 |  |  |
| C[C@@](Cc1ccc(O)c(O)c1)(NN)C(=O)O [Carbidopa] | 46 ± 28 µM | N1 | 660 nM | Change of toxicity in All Mix vs. parent compound (Hep3B cells [1]): augmented toxicity; Change of toxicity in P450 Mix vs. parent compound (Hep3B cells [3]): activated |
| CCCNC(=O)NS(=O)(=O)c1ccc(Cl)cc1 [Chlorpropamide] | 300 µM | P2 | 123000 nM |  |
| O=C(O)Cc1ccccc1Nc1c(Cl)cccc1Cl [Diclofenac] | 120 ± 51 µM | P2 |  |  |
| C[C@]12CC[C@@H]3c4ccc(O)cc4CC[C@H]3[C@@H]1CC[C@@H]2O [Estradiol] | 53 ± 20 µM | N3 | 0.1 nM |  |
| CC(Cc1ccc(O)cc1)NCC(O)c1cc(O)cc(O)c1 (stereo not shown) [Fenoterol] | 300 µM | P2 | 0.6 nM | CC50 (Hep3B cells [1]; read-out: IC50, 3D cultured Hep3B cells on the Data/MetaChip, All Mix): 1200 µM; CC50 (Hep3B cells [1]; read-out: IC50, 3D cultured Hep3B cells on the Data/MetaChip, HLM): 1200 µM; CC50 (Hep3B cells [1]; read-out: IC50, 3D cultured Hep3B cells on the Data/MetaChip, No Enzyme): 1200 µM; IC50 (in vitro): 290 ± 140 µM |
| CNCCC(Oc1ccc(C(F)(F)F)cc1)c1ccccc1 (stereo not shown) [Fluoxetine] |  | N3 | 97 nM |  |
| CC(C)C(=O)Nc1ccc([N+](=O)[O-])c(C(F)(F)F)c1 [Flutamide] | 45 ± 18 µM | P2 |  | Change of toxicity in All Mix vs. parent compound (Hep3B cells [1]): statistically less toxicity |
| CN(C)CCCN1c2ccccc2CCc2ccccc21 [Imipramine] | 5 ± 2 µM | P2 |  |  |
| CC(CCc1ccccc1)NCC(O)c1ccc(O)c(C(N)=O)c1 (stereo not shown) [Labetalol] | 150 ± 34 µM | P2 |  |  |
| Cc1cccc(Nc2ccccc2C(=O)O)c1C [Mefenamic acid] | 260 ± 74 µM | P2 |  | Change of toxicity in All Mix vs. parent compound (Hep3B cells [1]): statistically less toxicity |
| CCCOc1ccc2[nH]c(NC(=O)OC)nc2c1 [Oxybendazole] |  | O1 | 30 nM | Change of toxicity in All Mix vs. parent compound (Hep3B cells [1]): augmented toxicity; IC50 ([2]; 2D monolayer, no enzyme, MTT): 24 ± 18 µM |
| Nc1ccc(/N=N/c2ccccc2)c(N)n1 [Phenazopyridine] | 55 ± 13 µM | P2 | 124 nM |  |
| Cc1ccc(N(CC2=NCCN2)c2cccc(O)c2)cc1 [Phentolamine] | 48 ± 9 µM |  |  |  |
| CN(C)CCCN1c2ccccc2Sc2ccccc21 [Promazine] | 21 ± 3 µM | N3 | 490 nM |  |
| Cc1nc2n(c(=O)c1CCN1CCC(c3noc4cc(F)ccc34)CC1)CCCC2 [Risperidone] |  | P2 |  |  |
| CC1=C(CC(=O)O)c2cc(F)ccc2/C1=C\c1ccc([S+](C)[O-])cc1 (stereo not shown) [Sulindac] | 300 µM | P2 |  | Change of toxicity in All Mix vs. parent compound (Hep3B cells [1]): statistically less toxicity; also recorded: increased IC50 |
| O=c1n(CCCN2CCN(c3cccc(Cl)c3)CC2)nc2ccccn12 [Trazodone] |  | P2 |  |  |
